Reference: patent US7378513B2, “Isolated proteins from a traditional Chinese medicine Yuzhu and use thereof” (priority 2005, dated 2008)
Converted amounts (≈) assume the structure as drawn. Read-outs that look alike come from different tables or passages of the source.

What was measured:
HSV-2 = assay: Cytopathic effect (CPE) inhibition assay, HSV-2; type: cell-based, Herpes Simplex Virus; conditions: Human alphaherpesvirus 2; CPE method, Vero cells
HSV-1 (15577) [1] = assay: microbe, parasite or virus in culture; type: cell-based, Herpes Simplex Virus; conditions: Human alphaherpesvirus 1, CPE method
HSV-1 (15577) [2] = assay: microbe, parasite or virus in culture; type: cell-based, Herpes Simplex Virus; conditions: Human alphaherpesvirus 1; plaque reduction assay, Vero cells; M2 value is the average of two
RSV (long strain) [3] = assay: microbe, parasite or virus in culture; type: cell-based; conditions: human respiratory syncytial virus; plaque reduction assay
RSV (long strain) [4] = assay: microbe, parasite or virus in culture; type: cell-based, respiratory syncytial virus; conditions: CPE method; for IC50: human respiratory syncytial virus
rabbit erythrocytes = assay: Hemagglutinating test, rabbit red blood cells; type: cell-based
Method: The assay was carried out in a U-shape microtiter plate as described previously (Ooi et al., 1998). […] Specific hemagglutinating activity was expressed as the number of hemagglutinating units per mg protein in Table 3. Rabbit, human (ABO groups), and chicken red blood cells were used for hemagglutinating test. Concanavalin A (ConA) was used as a positive control, and phosphate-buffered saline (PBS, 0.1M, pH7.4) as a negative control. A serial twofold dilution of the lectin solution (in PBS) in microtitre U-plates (50 μl) was mixed with 50 μl of a 2% suspension of red blood cells in PBS at room temperature. The results were read after about one hour when the blank (with red blood cells and buffer only) had fully sedimented.

**Q.** For `Nc1nc2c(ncn2COCCO)c(=O)[nH]1` [Acyclovir], which IC50 (HSV-2) is on record?
**A.** The IC50 was 0.35 µg/mL (≈ 1.55 µM).

**Q.** And the IC50 (HSV-1 (15577) [1]; Vero cells, Table 4a Yuzhu (Dried Herbs))?
**A.** Its IC50 is 0.25 µg/mL (≈ 1.11 µM).

**Q.** What about the IC50 (HSV-1 (15577) [1]; Table 4b Yuzhu (Fresh Herbs)) of the same compound?
**A.** Its IC50 is 0.25 µg/mL (≈ 1.11 µM).

**Q.** What about the IC50 (HSV-1 (15577) [2]) of the same compound?
**A.** The IC50 was 0.15 µg/mL (≈ 0.666 µM).

**Q.** What does the source list for `NC(=O)c1ncn([C@@H]2O[C@H](CO)[C@@H](O)[C@H]2O)n1` [Ribavirin]?
**A.** IC50 (RSV (long strain) [3]): 3.3 µg/mL (≈ 13.5 µM); IC50 RSV (long strain) (RSV (long strain) [4]; Hep2 cells, Table 4a Yuzhu (Dried Herbs), listed as Ribvirin): (6.3) μg/ml; IC50 (RSV (long strain) [4]; HEp-2, Hep2 cells, Table 4a Yuzhu (Dried Herbs), read-out: IC50 RSV (long strain)): 6.3 µg/mL (≈ 25.8 µM); IC50 (RSV (long strain) [4]; Table 4b Yuzhu (Fresh Herbs), read-out: IC50 RSV): 6.3 µg/mL (≈ 25.8 µM)

**Q.** Concanavalin A [ConA] was tested. Which Specific hemagglutinating activity (rabbit erythrocytes) did it give?
**A.** The Specific hemagglutinating activity was 12,800 U/mg protein.
